Measurements from US20180022810A1, “USE OF CXCR3 INHIBITORS FOR PROTECTING AGAINST FETAL WASTAGE” (Children's Hospital Medical Center, priority 2015, published 2018).

Test system: C57BL/6 female mice bearing allogeneic pregnancy sired by Balb/c males
Assay: Fetal wastage and in utero Lm invasion after virulent Lm (strain 10403s) prenatal infection, allogeneic pregnancy
Assay type: in vivo
Details: virulent Lm 10^4 CFU, ampicillin in drinking water

For `CC1(C)S[C@@H]2[C@H](NC(=O)[C@H](N)c3ccccc3)C(=O)N2[C@H]1C(=O)O` [ampicillin], the “benefits (protection against fetal wastage)” value (treatment delayed until 24 hours post-infection) was “uniformly dissipated” and the “protection against fetal wastage” value (treatment initiated 12 hours after infection) was “near complete protection”.
